According to patent US11337969B2, “Methods for treating cancer” (X4 Pharmaceuticals, Inc., priority 2016, dated 2022):

Tests used:
[1] = test system: melanoma, renal cell carcinoma, and ovarian cancer; settings: including decreased metastasis and increased overall survival; cited from earlier work
[2] = subcutaneous injection; cited from earlier work
[3] = Solubility of X4P-001 as a function of pH; format: physicochemical
in vivo = assay: in vivo
Description: In certain embodiments, the dosage composition may be provided twice a day in divided dosage, approximately 12 hours apart. In other embodiments, the dosage composition may be provided once daily. […] Dosage for oral administration may be from about 100 mg to about 1200 mg once or twice per day.

[4] = oral administration, healthy volunteers and HIV patients; cited from earlier work
[5] = test system: advanced clear-cell renal-cell carcinoma; settings: cited from earlier work; for objective response rate: patients after one or two antiangiogenic regimens, nivolumab 3 mg/kg iv every two weeks or everolimus 10 mg orally daily, P<0.001
[6] = nivolumab compared to everolimus

c1cc(CN2CCCNCCNCCCNCC2)ccc1CN1CCCNCCNCCCNCC1 [Plerixafor, reference compound]
anti-tumor activity [1]: significant anti-tumor activity
half life [2]: very short

NCCCCN(Cc1nc2ccccc2[nH]1)[C@H]1CCCc2cccnc21 [X4P-001]
anti-tumor activity [1]: significant anti-tumor activity
solubility ([3]; aqueous buffer, pH range 3.0 to 8.0 (freely soluble)): > 100 mg/mL
Solubility in water ([3]; water): only slightly soluble
terminal half-life (in vivo): approximately 14.5 hrs
half-life (in vivo; terminal half-life): 720 to 1440 min
pharmacodynamic activity: circulating white blood cells (WBCs) [4]: dose- and concentration-related changes
volume of distribution (VL) [4]: high

CO[C@H]1C[C@@H]2CC[C@@H](C)[C@@](O)(O2)C(=O)C(=O)N2CCCC[C@H]2C(=O)O[C@H]([C@H](C)C[C@@H]2CC[C@@H](OCCO)[C@H](OC)C2)CC(=O)[C@H](C)/C=C(\C)[C@@H](O)[C@@H](OC)C(=O)[C@H](C)C[C@H](C)/C=C/C=C/C=C/1C [everolimus]
objective response rate [5]: 5%

nivolumab: human IgG4 anti-PD-1 monoclonal antibody
incidence of Grade 3 or 4 treatment-related adverse events [5, 6]: lower incidence
median overall survival [5, 6]: longer
objective response rate [5]: 25%
